# Measurements reported in PubChem BioAssay (NCI).
#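 A five-concentration, 48-hour dose response in 96-well plates underlies each endpoint, interpolated linearly between surrounding concentrations. Abbreviation: GI50, concentration required for 50% inhibition of growth. TGI is the concentration that stops growth completely.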
# Legend:
# Test in all cases: NCI tumour cell line growth inhibition, 48 h
# HCT-15 colon = system: HCT-15 colon
# MDA-MB-435 = system: MDA-MB-435
# CCRF-CEM leukemia = system: CCRF-CEM leukemia
# OVCAR-3 ovarian = system: OVCAR-3 ovarian
# SNB-19 CNS = system: SNB-19 CNS
# SNB-75 CNS = system: SNB-75 CNS
# HCT-116 colon = system: HCT-116 colon
# NCI-H522 lung = system: NCI-H522 lung
# NCI/ADR-RES ovarian = system: NCI/ADR-RES ovarian
# OVCAR-8 ovarian = system: OVCAR-8 ovarian
# SN12C renal = system: SN12C renal
# MDA-MB-231 breast = system: MDA-MB-231 breast
# OVCAR-4 ovarian = system: OVCAR-4 ovarian
# PC-3 prostate = system: PC-3 prostate
# SK-MEL-28 melanoma = system: SK-MEL-28 melanoma
# RXF 393 renal = system: RXF 393 renal
# SK-MEL-5 melanoma = system: SK-MEL-5 melanoma
# MCF7 breast = system: MCF7 breast
# HL-60(TB) leukemia = system: HL-60(TB) leukemia
# T-47D breast = system: T-47D breast
# HOP-92 NSCLC = system: HOP-92 NSCLC
# SF-268 CNS = system: SF-268 CNS
# SK-MEL-2 melanoma = system: SK-MEL-2 melanoma
# HS 578T breast = system: HS 578T breast
# ACHN renal = system: ACHN renal
# A498 renal = system: A498 renal
# SF-539 CNS = system: SF-539 CNS
# M14 melanoma = system: M14 melanoma
# SW-620 colon = system: SW-620 colon
# CAKI-1 renal = system: CAKI-1 renal
# HT29 colon = system: HT29 colon
# MOLT-4 leukemia = system: MOLT-4 leukemia
# A549 NSCLC = system: A549 NSCLC
# SF-295 CNS = system: SF-295 CNS
# K-562 leukemia = system: K-562 leukemia
# U251 CNS = system: U251 CNS
# MALME-3M melanoma = system: MALME-3M melanoma
# NCI-H226 lung = system: NCI-H226 lung
# UACC-62 melanoma = system: UACC-62 melanoma
# NCI-H460 lung = system: NCI-H460 lung
# IGROV1 ovarian = system: IGROV1 ovarian
# HCC-2998 colon = system: HCC-2998 colon
# COLO 205 colon = system: COLO 205 colon
# SR leukemia = system: SR leukemia
# 786-0 renal = system: 786-0 renal
# TK-10 renal = system: TK-10 renal
# EKVX NSCLC = system: EKVX NSCLC
# UACC-257 melanoma = system: UACC-257 melanoma
# LOX IMVI melanoma = system: LOX IMVI melanoma
# KM12 colon = system: KM12 colon
# NCI-H23 lung = system: NCI-H23 lung
# RPMI-8226 leukemia = system: RPMI-8226 leukemia
# HOP-62 NSCLC = system: HOP-62 NSCLC
# BT-549 breast = system: BT-549 breast
# UO-31 renal = system: UO-31 renal
# OVCAR-5 ovarian = system: OVCAR-5 ovarian
# SK-OV-3 ovarian = system: SK-OV-3 ovarian
# DU-145 prostate = system: DU-145 prostate
smiles,measurement,setting,value
CN1CCN(Cc2ccc(NC(=O)c3cncc(C#Cc4cnc5ccc(O[C@@H]6CCOC6)nn45)c3)cc2C(F)(F)F)CC1,GI50,HCT-15 colon,161 nM
same,TGI,HCT-15 colon,639 nM
same,GI50,MDA-MB-435,125 nM
same,TGI,MDA-MB-435,653 nM
same,GI50,CCRF-CEM leukemia,75.1 nM
same,TGI,CCRF-CEM leukemia,3050 nM
same,GI50,OVCAR-3 ovarian,194 nM
same,TGI,OVCAR-3 ovarian,768 nM
same,GI50,SNB-19 CNS,301 nM
same,TGI,SNB-19 CNS,1220 nM
same,GI50,SNB-75 CNS,124 nM
same,TGI,SNB-75 CNS,510 nM
same,GI50,HCT-116 colon,64.9 nM
same,TGI,HCT-116 colon,454 nM
same,GI50,NCI-H522 lung,107 nM
same,TGI,NCI-H522 lung,277 nM
same,GI50,NCI/ADR-RES ovarian,676 nM
same,TGI,NCI/ADR-RES ovarian,1910 nM
same,GI50,OVCAR-8 ovarian,160 nM
same,TGI,OVCAR-8 ovarian,634 nM
same,GI50,SN12C renal,120 nM
same,TGI,SN12C renal,636 nM
same,GI50,MDA-MB-231 breast,82.5 nM
same,TGI,MDA-MB-231 breast,475 nM
same,GI50,OVCAR-4 ovarian,155 nM
same,TGI,OVCAR-4 ovarian,940 nM
same,GI50,PC-3 prostate,277 nM
same,TGI,PC-3 prostate,1210 nM
same,GI50,SK-MEL-28 melanoma,186 nM
same,TGI,SK-MEL-28 melanoma,813 nM
same,GI50,RXF 393 renal,143 nM
same,TGI,RXF 393 renal,405 nM
same,GI50,SK-MEL-5 melanoma,586 nM
same,TGI,SK-MEL-5 melanoma,1220 nM
same,GI50,MCF7 breast,80.4 nM
same,TGI,MCF7 breast,580 nM
same,GI50,HL-60(TB) leukemia,75.2 nM
same,TGI,HL-60(TB) leukemia,364 nM
same,GI50,T-47D breast,556 nM
same,TGI,T-47D breast,1310 nM
same,GI50,HOP-92 NSCLC,27.3 nM
same,TGI,HOP-92 NSCLC,117 nM
same,GI50,SF-268 CNS,158 nM
same,TGI,SF-268 CNS,562 nM
same,GI50,SK-MEL-2 melanoma,114 nM
same,TGI,SK-MEL-2 melanoma,321 nM
same,GI50,HS 578T breast,127 nM
same,TGI,HS 578T breast,565 nM
same,GI50,ACHN renal,171 nM
same,TGI,ACHN renal,670 nM
same,GI50,A498 renal,606 nM
same,TGI,A498 renal,1250 nM
same,GI50,SF-539 CNS,99.8 nM
same,TGI,SF-539 CNS,715 nM
same,GI50,M14 melanoma,66.2 nM
same,TGI,M14 melanoma,181 nM
same,GI50,SW-620 colon,153 nM
same,TGI,SW-620 colon,623 nM
same,GI50,CAKI-1 renal,122 nM
same,TGI,CAKI-1 renal,596 nM
same,GI50,HT29 colon,111 nM
same,TGI,HT29 colon,602 nM
same,GI50,MOLT-4 leukemia,81.8 nM
same,TGI,MOLT-4 leukemia,1320 nM
same,GI50,A549 NSCLC,195 nM
same,TGI,A549 NSCLC,693 nM
same,GI50,SF-295 CNS,454 nM
same,TGI,SF-295 CNS,1180 nM
same,GI50,K-562 leukemia,5 nM
same,TGI,K-562 leukemia,1790 nM
same,GI50,U251 CNS,270 nM
same,TGI,U251 CNS,933 nM
same,GI50,MALME-3M melanoma,61.3 nM
same,TGI,MALME-3M melanoma,294 nM
same,GI50,NCI-H226 lung,47.8 nM
same,TGI,NCI-H226 lung,911 nM
same,GI50,UACC-62 melanoma,165 nM
same,TGI,UACC-62 melanoma,809 nM
same,GI50,NCI-H460 lung,182 nM
same,TGI,NCI-H460 lung,703 nM
same,GI50,IGROV1 ovarian,89.4 nM
same,TGI,IGROV1 ovarian,587 nM
same,GI50,HCC-2998 colon,260 nM
same,TGI,HCC-2998 colon,886 nM
same,GI50,COLO 205 colon,109 nM
same,TGI,COLO 205 colon,220 nM
same,GI50,SR leukemia,82.3 nM
same,TGI,SR leukemia,490 nM
same,GI50,786-0 renal,265 nM
same,TGI,786-0 renal,833 nM
same,GI50,TK-10 renal,177 nM
same,TGI,TK-10 renal,632 nM
same,GI50,EKVX NSCLC,288 nM
same,TGI,EKVX NSCLC,942 nM
same,GI50,UACC-257 melanoma,531 nM
same,TGI,UACC-257 melanoma,1240 nM
same,GI50,LOX IMVI melanoma,139 nM
same,TGI,LOX IMVI melanoma,635 nM
same,GI50,KM12 colon,5 nM
same,TGI,KM12 colon,539 nM
same,GI50,NCI-H23 lung,178 nM
same,TGI,NCI-H23 lung,729 nM
same,GI50,RPMI-8226 leukemia,265 nM
same,TGI,RPMI-8226 leukemia,1260 nM
same,GI50,HOP-62 NSCLC,176 nM
same,TGI,HOP-62 NSCLC,641 nM
same,GI50,BT-549 breast,646 nM
same,TGI,BT-549 breast,1290 nM
same,GI50,UO-31 renal,173 nM
same,TGI,UO-31 renal,682 nM
same,GI50,OVCAR-5 ovarian,223 nM
same,TGI,OVCAR-5 ovarian,883 nM
same,GI50,SK-OV-3 ovarian,449 nM
same,TGI,SK-OV-3 ovarian,1120 nM
same,GI50,DU-145 prostate,187 nM
same,TGI,DU-145 prostate,642 nM
